“Also recorded” adds a separate entry of the source. Residues, ends and D or L forms follow the SMILES beside them. *: point of attachment. Cbz = O=C(OCc1ccccc1)*; CHN2 = [N-]=[N+]=C*; CH2F = FC*
Key:
[1] = target: T1, cathepsin L (Homo sapiens, UniProt P07711); assay: Intracellular cathepsin L assay, wild type preprocathepsin L-GFP in HeLa-rtTA cells, 96-well plate reader; format: cell-based; details: 48 h; for Effect on overall level of GFP fluorescence: 0-60 μM
T1 construct: The C-terminus of the full length human preprocathepsin L is fused in frame to the N-terminus of GFP; GFP (Aequorea victoria, F64L/S65C/I167T/K238N) via BglII-NheI linker (C); expressed in transfected cells
T1 sequence (P07711 18-333 limits assumed): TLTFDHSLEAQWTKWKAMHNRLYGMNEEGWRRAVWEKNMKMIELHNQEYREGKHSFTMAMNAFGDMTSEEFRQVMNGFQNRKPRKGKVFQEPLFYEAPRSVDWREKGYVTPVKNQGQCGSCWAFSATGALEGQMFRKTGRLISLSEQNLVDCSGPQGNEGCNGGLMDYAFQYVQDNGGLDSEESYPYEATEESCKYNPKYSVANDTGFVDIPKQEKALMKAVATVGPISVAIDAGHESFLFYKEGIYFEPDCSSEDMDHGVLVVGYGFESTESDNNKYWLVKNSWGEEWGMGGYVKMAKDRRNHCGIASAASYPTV
Procedure: (§1) Adaptation of the assay to a 96-well plate format—The intracellular assay was performed in a 96-well microplate format using a plate reader to monitor GFP fluorescence. Three different inhibitors were used for the plate assay: Cbz-LeuLeuTyr-CHN2, Cbz-LeuLeuTyr-CH2F and E-64. These compounds are all irreversible inhibitors of cysteine proteases. Prior to measuring the fluorescence, the stably transfected pools of HeLa-rtTA cells were induced with doxycycline and cultured in presence of various concentrations of the inhibitors for 48 h.
(§2) FIG. 15 Adaptation of the intracellular assay to a high-throughput screening format. The assay was carried out in a 96-well microplate and fluorescence was measured using the Cytofluor. The expression of GFP fusion proteins was induced for 48 h in the presence of several inhibitors. Cell viability was determined using the MTT dye reduction assay. The average of triplicate values and the standard deviation for fluorescence and cell viability were expressed as a function of inhibitor concentration. Panel A. Relative fluorescence (fold/control) of cells expressing the wild-type preprocathepsin L-GFP fusion protein treated with various inhibitors. Panel B. The relative fluorescence of cells expressing the mutant preprocathepsin L-GFP (C25A) fusion protein in response to treatment with several inhibitors. Panel C. Percentage of viable cells expressing the wild type fusion protein after treatment with inhibitors. […]
Proteolytic Assays—For in vitro assays, purified GFP-His protein (100 μg) was incubated with 400 nM cathepsin L for 4.5 h. Aliquots were analyzed periodically to monitor the fluorescence using a CytoFluor plate reader (PerSeptive Biosystems, Framingham, Mass.) with cut-off filters of 488 nm (excitation) and […] (emission). […] For cell-based assays, stably transfected HeLa cells (stable pools) of either wild type cathepsin L-GFP or mutant cathepsin L-GFP fusions were grown in presence or absence of cathepsin inhibitors, and GFP fluorescence was monitored with various detection methods. […] Cells from one set of plates were harvested by trypsinization, resuspended in PBS, and GFP fluorescence was subsequently determined with flow cytometry. […] The cells were grown for an additional 24 h and GFP fluorescence was measured as described above. For detection with the CytoFluor plate reader, cells (400,000 cells/ml) in a total volume of 250 μl per well, were cultured in 96-well microplates. […] After the removal of medium, 200 μl of PBS was added to each well and the plates were scanned to monitor GFP fluorescence. Background fluorescence was determined from negative control cells (-doxycycline), and was subtracted from the fluorescence values obtained from induced cells that were cultured with various concentrations of inhibitors.

[2] = tested on: HeLa-rtTA cells; assay: Cell viability, MTT dye reduction assay; format: cell-based; details: 48 h; for Effect on cell viability: 0-60 μM, wild type and mutant fusion cells; for Cell viability: 60 μM
Procedure: FIG. 15 Adaptation of the intracellular assay to a high-throughput screening format. The assay was carried out in a 96-well microplate and fluorescence was measured using the Cytofluor. The expression of GFP fusion proteins was induced for 48 h in the presence of several inhibitors. Cell viability was determined using the MTT dye reduction assay. The average of triplicate values and the standard deviation for fluorescence and cell viability were expressed as a function of inhibitor concentration. Panel A. Relative fluorescence (fold/control) of cells expressing the wild-type preprocathepsin L-GFP fusion protein treated with various inhibitors. Panel B. The relative fluorescence of cells expressing the mutant preprocathepsin L-GFP (C25A) fusion protein in response to treatment with several inhibitors. Panel C. Percentage of viable cells expressing the wild type fusion protein after treatment with inhibitors. Panel D. The percentage of viable cells expressing the mutant fusion protein as described in Panel C.
Cell Viability Assay—The number of viable cells was evaluated by the MTT dye reduction assay with modification (24). In the presence of various concentrations of inhibitors, cells were grown in 96-well plates for 48 h. MTT reagent was then added to a final concentration of 0.5 mg/ml, and incubation at 37° C. in 5% CO2 was continued for 4 h. The resulting insoluble formazan crystals were solubilized by resuspending the cells in 100 μl of DMSO per well. Absorbance of converted dye was measured at 550/690 nm on SpectraMAX 250 (Molecular Devices). Assay values obtained from control cells were taken as 100%.

[3] = target: T2, non-active preprocathepsin L (C25A) mutant (Homo sapiens, UniProt P07711, C138A); assay: Control, mutant preprocathepsin L-GFP (C25A) in HeLa-rtTA cells, 96-well plate reader; format: cell-based; details: 0-60 μM, 48 h
T2 construct: The C-terminus of the full length human preprocathepsin L is fused in frame to the N-terminus of GFP; GFP (Aequorea victoria, F64L/S65C/I167T/K238N) via BglII-NheI linker (C); expressed in transfected cells
T2 sequence (P07711 114-333 C138A): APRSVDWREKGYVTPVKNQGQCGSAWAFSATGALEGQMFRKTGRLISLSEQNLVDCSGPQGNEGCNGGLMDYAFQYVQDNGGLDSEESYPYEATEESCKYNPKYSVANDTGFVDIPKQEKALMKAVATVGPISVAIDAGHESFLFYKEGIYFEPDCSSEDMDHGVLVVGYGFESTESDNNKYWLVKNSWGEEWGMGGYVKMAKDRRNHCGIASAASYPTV
Procedure: as §1
as §2, with “C.” for “C. Percentage of viable cells expressing the wild type fusion protein after treatment with inhibitors.”

[4] = target: T1, cathepsin L; assay: Intracellular cathepsin L assay, wild type preprocathepsin L-GFP in HeLa-rtTA cells, FACS; format: cell-based; details: 48 h
Procedure: (§3) A potent cathepsin L irreversible inhibitor, Cbz-LeuLeuTyr-CHN2, was also used in this experiment. To induce cathepsin L-GFP expression, the cells were cultured in the presence of doxycycline for 48 h. […] Fluorescence that corresponds to GFP, however, is found in the peaks at higher fluorescence levels (FIGS. 13B,C). This can be observed in all cell populations expressing GFP. […] In the absence of inhibitor, the active enzyme hydrolyzes most of the GFP substrate, resulting in low fluorescence levels. […] It must be noted also that the low level of cellular fluorescence increases slightly in presence of the inhibitor, possibly due to effects on cellular events.
(§4) FIG. 13 Characterization of GFP fluorescence by FACS analysis. Expression of GFP fusion proteins was induced in the presence or absence of Z-Leu-Leu-Tyr-CHN2 inhibitor for 48 h, and the fluorescence was measured by FACS . Panel A. The fluorescence histograms of non-30 transfected HeLa-rtTA cells, cultured in absence (shaded) or in presence of 35 μM inhibitor (superimposed). A shift of the superimposed histogram depicts an increase of the background fluorescence in response to the inhibitor (see text for more details). Panel B. The fluorescence histograms of cells expressing the mutant preprocathepsin L-GFP (C25A) fusion protein, grown in absence (shaded) and in presence (superimposed) of 35 μM inhibitor. Panel C. […]

[5] = target: T2, non-active preprocathepsin L (C25A) mutant; assay: Control, mutant preprocathepsin L-GFP (C25A) in HeLa-rtTA cells, FACS; format: cell-based; details: inactive cathepsin L (C25A), up to 35 μM inhibitor, 48 h
Procedure: as §3, §4

[6] = target: T3, caspase 8 (Homo sapiens, UniProt Q14790); assay: Cell-based assay for caspase 8 in Jurkat cells (GFP double mutant, anti-Fas Ab, guanidine-HCl)
T3 construct: endogenous in cells; host or cells: Jurkat-rtTA cells
T3 sequence (Q14790 217-374 limits assumed): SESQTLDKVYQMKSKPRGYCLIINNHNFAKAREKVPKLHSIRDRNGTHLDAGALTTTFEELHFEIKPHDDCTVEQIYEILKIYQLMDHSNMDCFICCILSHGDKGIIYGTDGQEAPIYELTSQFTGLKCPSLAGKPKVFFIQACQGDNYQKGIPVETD
T3 sequence (Q14790 385-479 limits assumed): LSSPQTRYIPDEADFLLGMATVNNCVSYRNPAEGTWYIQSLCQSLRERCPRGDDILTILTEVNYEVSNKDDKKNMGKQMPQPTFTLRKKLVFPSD
Text: Two factors are particularly important for the successful conversion of GFP into a preferred protease substrate: (i) the cleavage of the accessible substrate recognition sequence and (ii) the susceptibility of the cleaved GFP relative to the intact (non-cleaved) GFP towards unfolding. In the present work, it was preferred to introduce two cleavage sites in order to sufficiently destabilize GFP so that rapid unfolding could be observed at pH 5.5 in vitro. This is represented by a Scheme in FIG. 6. FIG. 6 is a graphical depiction of fluorescence as a function of the duration of exposure to guanidine-HCl. The assay was performed in Jurkat cells, using an anti-Fas Ab for caspase 8 activation. The assay is run in a 96-well plate format, using the Cytofluor plate reader. […] Without addition of Guanidine-HCl, no change in fluorescence was observed. However, a functional cellular assay (i.e. with a fluorescence readout) was obtained by incubating the cells with the denaturing agent Guanidine-HCl prior to analysis.
Without addition of Guanidine-HCl, no change in fluorescence is observed. However, a functional cellular assay (i.e. with a fluorescence readout) was obtained by incubating the cells with the denaturing agent Guanidine-HCl prior to analysis (FIG. 6).
The assay was performed in Jurkat cells and the GFP substrate was delivered by means of transient transfection. […]

| SMILES | Effect on overall level of GFP fluorescence [1] | Effect on cell viability [2] | Cell viability [2] | Fluorescence of cells expressing mutant non-active fusion protein [3] | GFP fluorescence ([4]; 35 μM inhibitor, doxycycline) | Increase of fluorescence (fluorescence index) ([4]; inhibitor concentration increased from 0 to 35 μM) | GFP fluorescence [5] | Fluorescence increase relative to control cells without inhibitor ([1]; 60 μM) | Response of fluorescence with inhibitor concentration ([6]; Fas-dependent hydrolysis of GFP, guanidine-HCl before reading) | Hydrolysis of GFP mutant in response to Fas-induced apoptosis ([6]; Jurkat-rtTA cells, Western with polyclonal anti-GFP Ab) |
| --- | --- | --- | --- | --- | --- | --- | --- | --- | --- | --- |
| CC(C)C[C@H](NC(=O)[C@H]1O[C@@H]1C(=O)O)C(=O)NCCCCN=C(N)N (relative stereo) [E-64, N-[N-(L-3-trans-carboxyoxirane-2-carbonyl)-L-leucyl]amino-4-guanidinobutane] | no significant effect | Almost no effect |  |  |  |  |  |  |  |  |
| CC(C)C[C@H](NC(=O)OCc1ccccc1)C(=O)N[C@@H](CC(C)C)C(=O)N[C@@H](Cc1ccc(O)cc1)C(=O)CF [Cbz-LeuLeuTyr-CH2F] (Cbz-Leu-Leu-Tyr-CH2F) | no significant effect | inversely proportional to the inhibitor concentration | approximately 50% |  |  |  |  |  |  |  |
| CC(C)C[C@H](NC(=O)OCc1ccccc1)C(=O)N[C@@H](CC(C)C)C(=O)N[C@@H](Cc1ccc(O)cc1)C(=O)C=[N+]=[N-] [Cbz-LeuLeuTyr-CHN2] (Cbz-Leu-Leu-Tyr-CHN2) | dose-dependent increase | inversely proportional to the inhibitor concentration | approximately 50% | small increase | significant increase | up to 5 fold | virtually no change; also recorded: remained unchanged | 20 fold |  |  |
| COC(=O)C[C@H](NC(=O)[C@H](C)NC(=O)[C@@H](NC(=O)OCc1ccccc1)C(C)C)C(=O)CF [Z-VAD-FMK] (Cbz-Val-Ala-Asp(OMe)-CH2F) |  |  |  |  |  |  |  |  | dose-dependent response | inhibited |
